From US8343959B2, “N-phenyl-(piperazinyl or homopiperazinyl)-benzenesulfonamide or benzenesulfonyl-phenyl-(piperazine or homopiperazine) compounds suitable for treating disorders that respond to modulation of the serotonin 5-HT6 receptor” (Abbott GmbH & Co. KG, priority 2009, dated 2013)
Counter-ions that a name gives are not always drawn.

The compounds below were run against T1, h-5-HT6 receptor (Homo sapiens, UniProt P50406) (assay: 5-HT6 receptor binding assay (displacement of [3H]-LSD)). Conditions: not given.
T1 construct: expressed in transfected cells
Experimental: Displacement of Radioligands Binding to The Following Cloned Human Receptors
Cells from stable clonal cell lines expressing the corresponding receptor (5-HT6, α1-adrenergic, dopamine D2 or histamine H1 receptors) were washed with PBS (w/o Ca^++, Mg^++) and harvested in PBS with 0.02% EDTA. The cells were collected by centrifugation at 500 g for 10 min. at 4° C., washed with PBS and centrifuged (500 g, 10 min. 4° C.). The pellets were stored at −80° C. until use. For membrane preparation, the thawed cell pellet was resuspended in ice-cold sucrose buffer (0.25 M sucrose, 10 mM Hepes (pH 7.4), 1 mM Phenylmethylsulfonyl fluoride (PMSF) in DMSO, 5 μg/ml Pepstatin-A, 3 mM EDTA, 0.025% Bacitracin) and homogenized with a Branson Sonifier W-250 (Settings: Timer 4; Output Control 3; Duty Cycle constant; 2 to 3 cycles). Cell disruption was checked with the aid of a microscope. Remaining unbroken cells were pelleted at 1.000 g for 10 min. at 4° C. The sucrose buffer supernatant was then centrifuged at 60.000 g for 1 h at 4° C. (Beckman Ultrazentrifuge XL 80). The pellet was resuspended in 30 ml ice-cold Tris buffer (20 mM TRIS (pH 7.4), 5 μg/ml Pepstatin A, 0.1 mM PMSF, 3 mM EDTA) by pipetting through a 10 ml serological pipet and centrifuged for 1 h at 4° C. at 60.000 g. A final resuspension was performed in a small volume of ice-cold Tris buffer (see above) by pressing through a serological pipet followed by ultrasonic treatment with a Branson Sonifier W-250 (Settings: Timer 1; Output Control 3; Duty Cycle constant; 1 cycle). Protein concentration was determined (BCA-Kit; Pierce) and aliquots stored at −80° C. or in liquid nitrogen for long-term storage.
All receptor binding experiments were carried out in the corresponding assay buffer in a total volume of 200 μl in the presence of various concentrations of test compound (10^−5 M to 10^−9 M, tenfold serial dilution, duplicate determinations). The assays were terminated by filtration on polyethylenimine (PEI 0.1% or 0.3%) presoaked Packard Unifilter Plates (GF/C or GF/B) with a Tomtec Machin U 96 well-plate harvester. After the plates had been dried for 2 h at 55° C. in a drying chamber scintillation cocktail (BetaPlate Scint; PerkinElmer) was added. Radioactivity was measured in a Microbeta Trilux two hours after the addition of the scintillation mixture. Data derived from liquid scintillation counting were analysed by iterative non-linear regression analysis with the use of the Statistical Analysis System (SAS): a program similar to “LIGAND” as described by Munson and Rodbard (Analytical Biochemistry 107, 220-239 (1980).
HEK293 cells stably expressing the h-5-HT6 receptor (NCBI Reference Sequence XM 001435) were cultured in RPMI1640 medium supplemented with 25 mM HEPES, 10% fetal calf serum and 1-2 mM glutamine. The membrane preparation was performed as described in section 1. […] Non-specific binding was defined with 1 μM methiothepin. The binding reaction was carried out for 3.5 h at room temperature. During the incubation, the plates were shaken on a plate shaker at 100 rpm and terminated by filtration on Packard Unifilter GF/C (0.1% PEI) plates, followed by 2 wash cycles with ice-cold 50 mM Tris-HCl, 5 mM CaCl2.
Data derived from liquid scintillation counting were analyzed by iterative non-linear regression analysis with the use of the Statistical Analysis System (SAS): a program similar to “LIGAND” as described by Munson and Rodbard (Anal. Biochem. 1980, 107, 220-239). Fitting was performed according to formulae described by Feldman (Anal. Biochem. 1972, 48, 317-338). IC50, nH and Ki values were expressed as geometrical mean.

T1 sequence (P50406 whole entry): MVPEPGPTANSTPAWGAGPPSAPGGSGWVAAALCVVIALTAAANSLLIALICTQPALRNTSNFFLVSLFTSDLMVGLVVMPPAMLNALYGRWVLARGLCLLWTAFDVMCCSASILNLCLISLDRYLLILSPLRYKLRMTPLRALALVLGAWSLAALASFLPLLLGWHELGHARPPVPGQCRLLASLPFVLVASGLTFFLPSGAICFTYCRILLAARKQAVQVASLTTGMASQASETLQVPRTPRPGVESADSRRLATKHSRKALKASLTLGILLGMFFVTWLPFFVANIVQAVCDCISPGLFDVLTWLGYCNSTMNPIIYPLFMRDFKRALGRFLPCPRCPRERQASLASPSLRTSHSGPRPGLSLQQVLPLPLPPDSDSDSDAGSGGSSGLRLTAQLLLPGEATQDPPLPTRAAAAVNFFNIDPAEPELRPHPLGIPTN

`COc1ccc(S(=O)(=O)c2cccc(OC(F)F)c2)cc1N1CCNCC1` [Example 47, 1-[5-(3-Difluoromethoxy-benzenesulfonyl)-2-methoxy-phenyl]-piperazine hydrochloride] showed a Ki of less than 0.01 µM.

Same assay, conditions: membranes of HEK293 cells expressing h-5-HT6 receptor, 1 nM [3H]-LSD; read-out: Ki (5HT6)

`COc1ccc(S(=O)(=O)Nc2ccccc2OC(F)F)cc1N1CCN(C)CC1` [Example 37, N-(2-Difluoromethoxy-phenyl)-4-methoxy-3-(4-methyl-piperazin-1-yl)-benzenesulfonamide hydrochloride] and `COc1ccc(S(=O)(=O)Nc2cc(Cl)ccc2OC(F)F)cc1N1CCN(C)CC1` [Example 53, N-(5-Chloro-2-difluoromethoxy-phenyl)-4-methoxy-3-(4-methyl-piperazin-1-yl)-benzenesulfonamide hydrochloride] cannot be ordered by Ki: less than 0.01 µM for the first, less than 0.01 µM for the second.

`COc1ccc(NS(=O)(=O)c2ccc(OC)c(N3CCN(C)CC3)c2)cc1OC(F)F` [Example 38, N-(3-Difluoromethoxy-4-methoxy-phenyl)-4-methoxy-3-(4-methyl-piperazin-1-yl)-benzenesulfonamide hydrochloride] and `COc1ccc(S(=O)(=O)Nc2ccc(OC(F)F)c(OC(F)F)c2)cc1N1CCN(C)CC1` [Example 51, N-(3,4-Bis-difluoromethoxy-phenyl)-4-methoxy-3-(4-methyl-piperazin-1-yl)-benzenesulfonamide hydrochloride] cannot be ordered by Ki: less than 0.01 µM for the first, less than 0.01 µM for the second.

`Cc1ccc(S(=O)(=O)N(c2ccccc2OC(F)F)C(C)C)cc1N1CCNCC1` [Example 39, N-(2-Difluoromethoxy-phenyl)-N-isopropyl-4-methyl-3-piperazin-1-yl-benzenesulfonamide hydrochloride] and `CN(c1ccccc1OC(F)F)S(=O)(=O)c1cccc(N2CCNCC2)c1` [Example 43, N-(2-Difluoromethoxy-phenyl)-N-methyl-3-piperazin-1-yl-benzenesulfonamide hydrochloride] cannot be ordered by Ki: less than 0.5 µM for the first, less than 0.5 µM for the second.

`COc1ccc(S(=O)(=O)Nc2cccc3c2OC(F)(F)O3)cc1N1CCNCC1` [Example 40, N-(2,2-Difluoro-benzo[1,3]dioxol-4-yl)-4-methoxy-3-piperazin-1-yl-benzenesulfonamide hydrochloride] and `COc1ccc(S(=O)(=O)Nc2cc(Cl)ccc2OC(F)F)cc1N1CCNCC1` [Example 57, N-(5-Chloro-2-difluoromethoxy-phenyl)-4-methoxy-3-piperazin-1-yl-benzenesulfonamide hydrochloride] cannot be ordered by Ki: less than 0.05 µM for the first, less than 0.01 µM for the second.

`O=S(=O)(Nc1ccccc1OC(F)F)c1cccc(N2CCNCC2)c1` [Example 41, N-(2-Difluoromethoxy-phenyl)-3-piperazin-1-yl-benzenesulfonamide hydrochloride] and `CN1CCN(c2cccc(S(=O)(=O)Nc3ccccc3OC(F)F)c2)CC1` [Example 42, N-(2-Difluoromethoxy-phenyl)-3-(4-methyl-piperazin-1-yl)-benzenesulfonamide hydrochloride] cannot be ordered by Ki: less than 0.01 µM for the first, less than 0.01 µM for the second.

`O=S(=O)(c1cccc(OC(F)F)c1)c1cccc(N2CCNCC2)c1` [Example 45, 1-[3-(3-Difluoromethoxy-benzenesulfonyl)-phenyl]-piperazine hydrochloride] and `CN1CCN(c2cccc(S(=O)(=O)c3cccc(OC(F)F)c3)c2)CC1` [Example 46, 1-[3-(3-Difluoromethoxy-benzenesulfonyl)-phenyl]-4-methyl-piperazine hydrochloride] cannot be ordered by Ki: less than 0.01 µM for the first, less than 0.01 µM for the second.

`COc1ccc(S(=O)(=O)c2cccc(OC(F)F)c2)cc1N1CCN(C)CC1` [Example 48, 1-[5-(3-Difluoromethoxy-benzenesulfonyl)-2-methoxy-phenyl]-4-methyl-piperazine hydrochloride] and `COc1ccc(S(=O)(=O)Nc2cc(OC(F)F)ccc2C)cc1N1CCN(C)CC1` [Example 55, N-(5-Difluoromethoxy-2-methyl-phenyl)-4-methoxy-3-(4-methyl-piperazin-1-yl)-benzenesulfonamide hydrochloride] cannot be ordered by Ki: less than 0.01 µM for the first, less than 0.01 µM for the second.

`COc1ccc(S(=O)(=O)c2ccc(OC)c(N3CCNCC3)c2)cc1OC(F)F` [Example 49, 1-[5-(3-Difluoromethoxy-4-methoxy-benzenesulfonyl)-2-methoxy-phenyl]-piperazine hydrochloride] and `COc1ccc(S(=O)(=O)Nc2ccc(OC(F)F)c(OC(F)F)c2)cc1N1CCNCC1` [Example 60, N-(3,4-Bis-difluoromethoxy-phenyl)-4-methoxy-3-piperazin-1-yl-benzenesulfonamide hydrochloride] cannot be ordered by Ki: less than 0.01 µM for the first, less than 0.01 µM for the second.

`Cc1ccc(S(=O)(=O)Nc2ccc(OC(F)F)c(OC(F)F)c2)cc1N1CCNCC1` [Example 52, N-(3,4-Bis-difluoromethoxy-phenyl)-4-methyl-3-piperazin-1-yl-benzenesulfonamide hydrochloride] and `Cc1ccc(OC(F)F)cc1NS(=O)(=O)c1ccc(C)c(N2CCNCC2)c1` [Example 58, N-(5-Difluoromethoxy-2-methyl-phenyl)-4-methyl-3-piperazin-1-yl-benzenesulfonamide hydrochloride] cannot be ordered by Ki: less than 0.05 µM for the first, less than 0.01 µM for the second.

`CCc1ccc(S(=O)(=O)Nc2cc(C)ccc2OC(F)F)cc1N1CCN(C)CC1` [Example 54, N-(2-Difluoromethoxy-5-methyl-phenyl)-4-ethyl-3-(4-methyl-piperazin-1-yl)-benzenesulfonamide] and `CCc1ccc(S(=O)(=O)Nc2cc(C)ccc2OC(F)F)cc1N1CCNCC1` [Example 65, N-(2-Difluoromethoxy-5-methyl-phenyl)-4-ethyl-3-piperazin-1-yl-benzenesulfonamide hydrochloride] cannot be ordered by Ki: less than 0.01 µM for the first, less than 0.01 µM for the second.

`Cc1ccc(S(=O)(=O)Nc2cc(Cl)ccc2OC(F)F)cc1N1CCN(C)CC1` [Example 56, N-(5-Chloro-2-difluoromethoxy-phenyl)-4-methyl-3-(4-methyl-piperazin-1-yl)-benzenesulfonamide hydrochloride] and `CCc1ccc(S(=O)(=O)Nc2cc(Cl)ccc2OC(F)F)cc1N1CCNCC1` [Example 61, N-(5-Chloro-2-difluoromethoxy-phenyl)-4-ethyl-3-piperazin-1-yl-benzenesulfonamide hydrochloride] cannot be ordered by Ki: less than 0.05 µM for the first, less than 0.01 µM for the second.

`COc1ccc(S(=O)(=O)Nc2cc(OC(F)F)ccc2C)cc1N1CCNCC1` [Example 59, N-(5-Difluoromethoxy-2-methyl-phenyl)-4-methoxy-3-piperazin-1-yl-benzenesulfonamide hydrochloride] and `CCc1ccc(S(=O)(=O)Nc2ccc(C)cc2OC(F)F)cc1N1CCNCC1` [Example 62, N-(2-Difluoromethoxy-4-methyl-phenyl)-4-ethyl-3-piperazin-1-yl-benzenesulfonamide hydrochloride] cannot be ordered by Ki: less than 0.01 µM for the first, less than 0.01 µM for the second.

`Cc1ccc(OC(F)F)c(NS(=O)(=O)c2ccc(C)c(N3CCN[C@H](C)C3)c2)c1` [Example 63, N-(2-Difluoromethoxy-5-methyl-phenyl)-4-methyl-3-((R)-3-methyl-piperazin-1-yl)-benzenesulfonamide hydrochloride] and `Cc1ccc(OC(F)F)c(NS(=O)(=O)c2ccc(C)c(N3CCN[C@@H](C)C3)c2)c1` [Example 64, N-(2-Difluoromethoxy-5-methyl-phenyl)-4-methyl-3-((S)-3-methyl-piperazin-1-yl)-benzenesulfonamide hydrochloride] cannot be ordered by Ki: less than 0.01 µM for the first, less than 0.01 µM for the second.

`COc1ccc(S(=O)(=O)Nc2ccc3c(c2)OC(F)(F)O3)cc1N1CCN(C)CC1` [Example 66, N-(2,2-Difluoro-benzo[1,3]dioxol-5-yl)-4-methoxy-3-(4-methyl-piperazin-1-yl)-benzenesulfonamide hydrochloride] showed a Ki of less than 0.01 µM.
